Laboratory results as given in patent US10238670B2, “9-aminomethyl minocycline compounds and methods of use thereof in urinary tract infection (UTI) treatment” (Paratek Pharmaceuticals, Inc., priority 2016, dated 2019).
Like-named read-outs stand apart in the source and are kept apart here.

Assay: Phase 1b study in female adults with cystitis, plasma PK
Format: in vivo, human
Settings: plasma, plasma; for half-life / AUC(0-t) / Cmax / concentration at 5 day / Tmax: female, human
Experimental: According to the study design, a randomized (1:1:1), open-label, parallel designed Phase 1b study comparing 3 dosing regimens of Compound 1 (9-[(2,2-dimethyl-propyl amino)-methyl-minocycline) in the treatment of female adults with cystitis was conducted. About 31 female patients with uncomplicated urinary tract infection (cystitis) who met inclusion and exclusion criteria were enrolled at 2-4 U.S. treatment centers. All enrolled subjects participated in the study for approximately 5-6 weeks. Following Screening of up to 48 hrs, eligible subjects were randomly assigned to receive one of 3 dosing regimens of Compound 1 treatment as shown below. Subjects in all treatment groups were domiciled for a 5-day treatment period. Details of the study are further described below.
Subjects were randomized (1:1:1) to one of the following treatment arms: • 1. Group 1: IV load, p.o. daily (200 mg Compound 1 IV every 24 hours (q24h) for 1 dose, followed by 300 mg p.o. q24h for a total of 5 days); • 2. Group 2: p.o. load, p.o. daily (300 mg Compound 1 p.o. every 12 hours (q12h) for 2 doses, followed by 300 mg p.o. q24h for a total of 5 days); • 3. Group 3: high p.o. load, high p.o. daily (450 mg Compound 1 p.o. q12h for 2 doses, followed by 450 mg p.o. q24h for a total of 5 days).
Blood samples were collected and analyzed for Compound 1 concentration at the following times. Pre-dose blood PK evaluations were based on blood samples collected within 10 min of each start (e.g., t=0 h dose for Day 1, t=24 h dose for Day 2, etc.). • Day 1: Pre-dose, and 0.75, 1, 2, 3, 4, 6, 8 and 12 hours after the t=0 h dose (12 h sample before the t=12 h dose for Groups 2 and 3); • Day 2: prior to the t=24 h dose; • Day 3: prior to the t=48 h dose; • Day 4: prior to the t=72 h dose; • Day 5: Pre-dose, and 0.5, 1, 2, 3, 4, 6, 8 and 12 hours after the t=96 h dose • Day 6: at t=120 h (24 hours after the t=96 h dose on Day 5)
Following the final oral doses on Day 5 the Compound 1 plasma concentration-time data for Groups 1, 2 and 3 were used to determine Cmax, Tmax, AUC24h, AUCt. Trough plasma concentrations (Ctrough) following each dose (Days 2 to 6) were also determined.
Blood samples for PK are collected at the time points specified below. • Day 1: Predose, and 0.75, 1, 2, 3, 4, 6, 8 and 12 hours after the t=0 h dose (12 h sample before the t=12 h dose for Groups 2 and 3); • Day 2: prior to the t=24 h dose; • Day 3: prior to the t=48 h dose; • Day 4: prior to the t=72 h dose; • Day 5: Predose, and 0.5, 1, 2, 3, 4, 6, 8 and 12 hours after the t=96 h dose • Day 6: at t=120 h (24 hours after the t=96 h dose on Day 5)
Blood was collected either by fresh venipuncture or via a cannula used solely for that purpose. The dates and times for all doses of test article and PK sample collections were recorded. For intravenously administered doses of test article, the start and stop times for each infusion were recorded. Immediately after the sample was collected, the tube was gently inverted 5 to 8 times to thoroughly mix the anticoagulant and then placed upright in a cryoblock or test tube rack surrounded by ice until centrifugation. Samples were centrifuged at 1500×g for 10 minutes at approximately 4° C. within 30 minutes of collection. The resultant plasma was divided into 2 equal aliquots, placed in individual cryovials, and immediately frozen at −20° C. or colder within 1 hour of collection. The samples were kept frozen at −20° C. or colder pending shipment to the bioanalytical laboratory.
The Compound 1 plasma concentration data was listed and summarized by time point and treatment group. The following PK parameters were estimated from the Compound 1 plasma concentration-time data: […]

CN(C)c1cc(CNCC(C)(C)C)c(O)c2c1C[C@H]1C[C@H]3[C@H](N(C)C)C(O)=C(C(N)=O)C(=O)[C@@]3(O)C(O)=C1C2=O [Compound 1, 9-[(2,2-dimethyl-propylamino)-methyl]-minocycline]
half-life (oral, 300 mg, Day 5, IV_PO300, read-out: T½, Mean (converted)): 13.8 h
half-life (oral, 300 mg, Day 5, IV_PO300, read-out: T½, Median (converted)): 12.1 h
AUC(0-t) (oral, 300 mg, Day 5, PO300, read-out: AUC(0-24 hrs), Geo. Mean): 12400 ng·h/mL
AUC(0-t) (oral, 300 mg, Day 5, PO300, read-out: AUC(0-24 hrs), Mean): 13500 ng·h/mL
AUC(0-t) (oral, 300 mg, Day 5, PO300, read-out: AUC(0-24 hrs), Median): 13400 ng·h/mL
Cmax (oral, 300 mg, Day 5, PO300, read-out: Cmax, Geo. Mean): 999 ng/mL
Cmax (oral, 300 mg, Day 5, PO300, read-out: Cmax, Mean): 1120 ng/mL
Cmax (oral, 300 mg, Day 5, PO300, read-out: Cmax, Median): 1070 ng/mL
concentration at 5 day (oral, 300 mg, Day 5, PO300, read-out: Ctrough, Geo. Mean): 293 ng/mL
concentration at 5 day (oral, 300 mg, Day 5, PO300, read-out: Ctrough, Mean): 319 ng/mL
concentration at 5 day (oral, 300 mg, Day 5, PO300, read-out: Ctrough, Median): 315 ng/mL
Tmax (oral, 300 mg, Day 5, PO300, read-out: Tmax, Geo. Mean): 3.61 h
Tmax (oral, 300 mg, Day 5, PO300, read-out: Tmax, Mean): 3.9 h
Tmax (oral, 300 mg, Day 5, PO300, read-out: Tmax, Median): 3 h
AUC(0-t) (oral, 450 mg, Day 1, PO450, read-out: AUC(0-12 hrs), Geo. Mean): 6690 ng·h/mL
AUC(0-t) (oral, 450 mg, Day 1, PO450, read-out: AUC(0-12 hrs), Mean): 6850 ng·h/mL
AUC(0-t) (oral, 450 mg, Day 1, PO450, read-out: AUC(0-12 hrs), Median): 6650 ng·h/mL
Cmax (oral, 450 mg, Day 1, PO450, read-out: Cmax, Geo. Mean): 948 ng/mL
Cmax (oral, 450 mg, Day 1, PO450, read-out: Cmax, Mean): 987 ng/mL
Cmax (oral, 450 mg, Day 1, PO450, read-out: Cmax, Median): 947 ng/mL
Tmax (oral, 450 mg, Day 1, PO450, read-out: Tmax, Geo. Mean): 2.21 h
Tmax (oral, 450 mg, Day 1, PO450, read-out: Tmax, Median): 3 h
AUC(0-t) (oral, 450 mg, Day 5, PO450, read-out: AUC(0-24 hrs), Geo. Mean): 18700 ng·h/mL
AUC(0-t) (oral, 450 mg, Day 5, PO450, read-out: AUC(0-24 hrs), Mean): 19800 ng·h/mL
AUC(0-t) (oral, 450 mg, Day 5, PO450, read-out: AUC(0-24 hrs), Median): 21600 ng·h/mL
Cmax (oral, 450 mg, Day 5, PO450, read-out: Cmax, Geo. Mean): 1360 ng/mL
Cmax (oral, 450 mg, Day 5, PO450, read-out: Cmax, Mean): 1490 ng/mL
Cmax (oral, 450 mg, Day 5, PO450, read-out: Cmax, Median): 1640 ng/mL
concentration at 5 day (oral, 450 mg, Day 5, PO450, read-out: Ctrough, Geo. Mean): 462 ng/mL
concentration at 5 day (oral, 450 mg, Day 5, PO450, read-out: Ctrough, Mean): 484 ng/mL
concentration at 5 day (oral, 450 mg, Day 5, PO450, read-out: Ctrough, Median): 503 ng/mL
Tmax (oral, 450 mg, Day 5, PO450, read-out: Tmax, Geo. Mean): 2.64 h
Tmax (oral, 450 mg, Day 5, PO450, read-out: Tmax, Mean): 3.36 h
Tmax (oral, 450 mg, Day 5, PO450, read-out: Tmax, Median): 3.02 h
Tmax (po, 300 mg, Day 1, 300 mg po (n = 10), median, read-out: tmax): 3 h
Cmax (po, 300 mg, Day 5, 300 mg po (n = 10), mean, read-out: Cmax): 1120 ng/mL
Tmax (po, 300 mg, Day 5, 300 mg po (n = 10), median, read-out: tmax): 3 h
AUC(0-t) (po, 450 mg, Day 1, 450 mg po (n = 10), mean, read-out: AUC0-12): 6850 ng·h/mL
Tmax (po, 450 mg, Day 1, 450 mg po (n = 10), median, read-out: tmax): 3 h
Cmax (po, 450 mg, Day 1, 450 mg po (n = 10), mean, read-out: Cmax): 990 ng/mL
AUC(0-t) (po, 450 mg, Day 5, 450 mg po (n = 10), mean, read-out: AUC0-24): 19800 ng·h/mL
Cmax (po, 450 mg, Day 5, 450 mg po (n = 10), mean, read-out: Cmax): 1490 ng/mL
Tmax (po, 450 mg, Day 5, 450 mg po (n = 10), median, read-out: tmax): 3 h
Lambda Z, Geo. Mean (Day 1, IV_PO300): 0.0614 h⁻¹
Lambda Z, Mean (Day 1, IV_PO300): 0.0620 h⁻¹
Lambda Z, Median (Day 1, IV_PO300): 0.0605 h⁻¹
Tmax, Mean (Day 1, PO450): 2.492 h
Lambda Z, Geo. Mean (Day 5, IV_PO300): 0.0526 h⁻¹
Lambda Z, Mean (Day 5, IV_PO300): 0.0545 h⁻¹
Lambda Z, Median (Day 5, IV_PO300): 0.0574 h⁻¹
